In patent publication US7888351B2, “Organic compounds” (Novartis AG, priority 2006, dated 2011) one finds IC50 data, which are given here for four compounds.

T1 sequence (P27487 39-766): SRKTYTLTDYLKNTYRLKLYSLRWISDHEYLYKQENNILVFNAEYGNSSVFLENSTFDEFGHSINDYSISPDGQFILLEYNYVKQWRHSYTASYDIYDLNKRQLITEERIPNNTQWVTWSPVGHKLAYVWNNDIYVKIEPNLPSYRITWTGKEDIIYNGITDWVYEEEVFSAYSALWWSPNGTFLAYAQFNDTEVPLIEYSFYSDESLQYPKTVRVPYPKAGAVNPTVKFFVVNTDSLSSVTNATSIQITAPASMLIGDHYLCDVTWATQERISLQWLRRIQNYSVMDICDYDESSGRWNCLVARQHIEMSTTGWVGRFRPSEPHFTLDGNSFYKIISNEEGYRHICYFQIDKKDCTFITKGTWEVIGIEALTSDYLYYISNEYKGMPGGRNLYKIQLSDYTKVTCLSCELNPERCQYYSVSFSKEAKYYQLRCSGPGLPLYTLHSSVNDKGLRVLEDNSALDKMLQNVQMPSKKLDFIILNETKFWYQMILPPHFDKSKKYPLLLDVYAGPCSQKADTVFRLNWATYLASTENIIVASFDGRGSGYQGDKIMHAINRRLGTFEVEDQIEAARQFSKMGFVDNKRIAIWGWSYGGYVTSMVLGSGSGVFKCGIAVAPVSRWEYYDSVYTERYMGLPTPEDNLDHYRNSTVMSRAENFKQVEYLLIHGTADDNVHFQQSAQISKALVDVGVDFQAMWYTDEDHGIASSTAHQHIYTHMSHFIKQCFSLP

The assay has as its target T1, human DPP-IV (Homo sapiens, UniProt P27487).
T1 construct: Human DPP-IV consisting of amino acids 39 to 766 followed by a C-terminal Streptavidin-tag; Streptavidin-tag (C); made in house
Briefly: Activity assay: inhibitory activity to human DPP-IV (fluorogenic substrate H-Gly-Pro-AMC). Conditions: substrate H-Gly-Pro-AMC 10 μM, enzyme 10 pM, room temperature, 1 hour; read-out: hDPPIV IC50. It is filed as biochemical. As to the method:
Various compounds of the invention were tested for their inhibitory activity to human DPP-IV.
Human DPP-IV consisting of amino acids 39 to 766 followed by a C-terminal Streptavidin-tag was expressed using the baculovirus system and purified to >80% purity. The enzyme was stored in 25 mM Tris buffer, pH 9.0, containing 300 mM NaCl at −80° C. The fluorogenic substrates H-Gly-Pro-AMC was purchased from Bachem AG (Bubendorf, Switzerland). The substrate was kept as a 5 mM stock solution in DMSO at −20° C. All other chemicals were purchased from Sigma (Buchs, Switzerland).
The assay buffer for the DPP-IV reaction was 25 mM Tris/HCl, pH 7.5, containing 140 mM NaCl, 10 mM KCl and 0.05% (w/v) CHAPS.
The test compounds were dissolved in 90% DMSO/10% H2O (v/v). Serial dilutions of the compounds from 3 mM to 0.03 μM in 90% DMSO/10% H2O (v/v) followed by a 1:33.3 dilution in assay buffer was done in 96-well polypropylene plates using a CyBio Dilus 8-channel pipetter (CyBio AG, Jena, Germany) with tip change after each pipetting step. The compound solutions as well as the substrate and the enzyme solutions were transferred to the assay plates (384-well black Cliniplate; cat. no. 95040020 Labsystems Oy, Finland) by means of a CyBi-Well 96-channel pipetter (CyBio AG, Jena, Germany).
Enzyme kinetics were measured by mixing 10 μl of a 3-fold concentrated substrate solution in assay buffer (final substrate concentration was 10 μM) with 10 μl of the corresponding compound solution. The reactions were initiated by addition of 10 μl of a 3-fold concentrated solution of the enzyme in assay buffer. Final enzyme (active site) concentrations in the assay was 10 pM for DPP-IV. Fluorescence product (AMC) formation was monitored for 1 hour at room temperature at 35 second intervals by measuring the fluorescence emission at 500 nm using an exitation wavelength of 350 nm in a TECAN Ultra fluorescence reader (TECAN, Maennedorf, Switzerland). The fluorescence in each well was excited by one flash per measurement. The Origin software package (Origin 7.5 Mircocal, Northampton, Mass., USA) was used to generate all graphs and to perform the IC50 calculations.
Regarding `Cc1cnc(C(=O)NCCS(=O)(=O)N2[C@@H]3CC[C@H]2C[C@H]([C@H](N)Cc2cc(F)c(F)cc2F)C3)cn1` [Example D1, 5-Methyl-pyrazine-2-carboxylic acid (2-{3-exo-[(R)-1-amino-2-(2,4,5-trifluoro-phenyl)-ethyl]-8-aza-bicyclo[3.2.1]octane-8-sulfonyl}-ethyl)-amide], the IC50 came out at 7.7 nM. With `N[C@H](Cc1cc(F)c(F)cc1F)[C@@H]1C[C@H]2CC[C@@H](C1)N2C(=O)CNC(=O)C1(O)CC1` [Example E7, 1-Hydroxy-cyclopropanecarboxylic acid (2-{3-exo-[(R)-1-amino-2-(2,4,5-trifluoro-phenyl)-ethyl]-8-aza-bicyclo[3.2.1]oct-8-yl}-2-oxo-ethyl)-amide] the figure was 0.6 nM; with `C[C@](O)(C(=O)N1[C@@H]2CC[C@H]1C[C@H]([C@H](N)Cc1cc(F)c(F)cc1F)C2)c1ccccc1` [Example G4, (R)-1-{3-exo-[(R)-1-Amino-2-(2,4,5-trifluoro-phenyl)-ethyl]-8-aza-bicyclo[3.2.1]oct-8-yl}-2-hydroxy-2-phenyl-propan-1-one], 10 nM; with `N[C@H](Cc1cc(F)c(F)cc1F)[C@@H]1C[C@H]2CC[C@@H](C1)N2C(=O)CS(=O)(=O)N1Cc2ccccc2C1` [Example H13, 1-{3-exo-[(R)-1-Amino-2-(2,4,5-trifluoro-phenyl)-ethyl]-8-aza-bicyclo[3.2.1]oct-8-yl}-2-(1,3-dihydro-isoindole-2-sulfonyl)-ethanone], 7 nM.
